Consider one molecule from publication doi:10.1101/2024.06.03.597093v3 (biorxiv, 2024).

Like-named read-outs stand apart in the source and are kept apart here.

One assay addresses β2AR-NlucC (CRISPR) (Homo sapiens, UniProt P07550). As to the kind of experiment: cell-based. The note with it: HEK-293T, read-out: CRISPR_receptor Emax.
In assay [1] the target is T1, β2AR-NlucC (β2AR) (Homo sapiens, UniProt P07550). As to the kind of experiment: cell-based. The note with it: HEK-293T, read-out: CRISPR_mGs Emax.
T1 sequence (P07550 whole entry): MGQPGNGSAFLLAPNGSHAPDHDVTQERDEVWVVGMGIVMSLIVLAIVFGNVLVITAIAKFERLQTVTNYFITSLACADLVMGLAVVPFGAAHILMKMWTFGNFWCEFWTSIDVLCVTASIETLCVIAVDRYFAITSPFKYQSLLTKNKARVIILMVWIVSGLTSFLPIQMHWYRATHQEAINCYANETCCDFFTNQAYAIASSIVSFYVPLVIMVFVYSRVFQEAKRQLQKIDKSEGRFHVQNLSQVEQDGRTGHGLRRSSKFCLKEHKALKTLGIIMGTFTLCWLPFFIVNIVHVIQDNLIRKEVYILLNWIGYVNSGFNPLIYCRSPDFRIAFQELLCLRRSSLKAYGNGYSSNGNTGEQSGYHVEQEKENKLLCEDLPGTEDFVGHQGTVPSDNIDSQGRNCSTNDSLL
For assay [2], the target named is T1, β2AR-NlucC (β2AR). Put plainly: cell-based. The note with it: HEK-293T, read-out: Mini-G Protein Recruitment / Emax (%) ± SEM.
Another assay addresses β1AR-NlucC (CRISPR) (Homo sapiens, UniProt P08588). The settings on record: CRISPR receptor; relative to adrenaline; agonist.

Sequence of β1AR-NlucC (CRISPR) (P08588 whole entry): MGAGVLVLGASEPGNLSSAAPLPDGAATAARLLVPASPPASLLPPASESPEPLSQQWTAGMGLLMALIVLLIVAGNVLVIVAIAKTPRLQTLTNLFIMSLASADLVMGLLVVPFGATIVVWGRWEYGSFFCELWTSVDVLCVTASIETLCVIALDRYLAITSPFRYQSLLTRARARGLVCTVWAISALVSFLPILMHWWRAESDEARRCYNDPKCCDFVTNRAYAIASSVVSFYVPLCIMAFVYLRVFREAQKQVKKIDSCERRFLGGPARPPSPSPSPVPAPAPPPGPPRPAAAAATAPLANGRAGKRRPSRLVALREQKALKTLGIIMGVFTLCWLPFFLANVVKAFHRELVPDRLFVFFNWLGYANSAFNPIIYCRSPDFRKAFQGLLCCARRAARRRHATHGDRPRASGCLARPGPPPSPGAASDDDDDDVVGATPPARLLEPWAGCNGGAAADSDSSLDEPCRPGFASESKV
Sequence of β2AR-NlucC (CRISPR) (P07550 whole entry): as the sequence (P07550 whole entry) above

On to `NC[C@H](O)c1ccc(O)c(O)c1` [noradrenaline], for which the results for the Emax on β2AR-NlucC (CRISPR), at β2AR-NlucC (β2AR) [1] and on β2AR-NlucC (β2AR) [2] were 61 ± 7%, 51 ± 4% and 85 ± 2%, respectively. Also, the “CRISPR_receptor Emax” value on β1AR-NlucC (CRISPR) is given as 109 ± 7%.
